Assay results as given in PubChem BioAssay AID2060508 (Molecular Pharmacology Branch, DTP, NCI, 2025).

Tested on: 454973-116-R2-J3-PDC spheroids, viability, % test/control
Test: Anticancer human tumor 454973-116-R2-J3-PDC patient-derived pancreatic carcinoma cell line growth inhibition [GQUAD]
Details: spheroids with HUVEC and MSC; for IC50: curve of first compound; for viability, T/C: stronger effect = lower value; active = viability on the fitted dose curve at most 10% of control; inactive = the rest
Outline: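 Viability of tumor cells grown as complex spheroids with endothelial and stromal cells, exposed to drug combinations. Top concentration at or near clinical Cmax (else 10 microM), diluted in half-log increments.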

[1] = second compound 0.0316 µM, first compound 0.0316 µM
[2] = second compound 0.0316 µM, first compound 0.1 µM
[3] = second compound 0.0316 µM, first compound 0.316 µM
[4] = second compound 0.0316 µM, first compound 1 µM
[5] = second compound 0.0316 µM, first compound 3.16 µM
[6] = second compound 0.0316 µM, first compound 10 µM
[7] = second compound 0.1 µM, first compound 0.0316 µM
[8] = second compound 0.1 µM, first compound 0.1 µM
[9] = second compound 0.1 µM, first compound 0.316 µM
[10] = second compound 0.1 µM, first compound 1 µM
[11] = second compound 0.1 µM, first compound 3.16 µM
[12] = second compound 0.1 µM, first compound 10 µM
[13] = second compound 0.316 µM, first compound 0.0316 µM
[14] = second compound 0.316 µM, first compound 0.1 µM
[15] = second compound 0.316 µM, first compound 0.316 µM
[16] = second compound 0.316 µM, first compound 1 µM
[17] = second compound 0.316 µM, first compound 3.16 µM
[18] = second compound 0.316 µM, first compound 10 µM
[19] = second compound 1 µM, first compound 0.0316 µM
[20] = second compound 1 µM, first compound 0.1 µM
[21] = second compound 1 µM, first compound 0.316 µM
[22] = second compound 1 µM, first compound 1 µM
[23] = second compound 1 µM, first compound 3.16 µM
[24] = second compound 1 µM, first compound 10 µM
[25] = second compound 3.16 µM, first compound 0.0316 µM
[26] = second compound 3.16 µM, first compound 0.1 µM
[27] = second compound 3.16 µM, first compound 0.316 µM
[28] = second compound 3.16 µM, first compound 1 µM
[29] = second compound 3.16 µM, first compound 3.16 µM
[30] = second compound 3.16 µM, first compound 10 µM
[31] = second compound 10 µM, first compound 0.0316 µM
[32] = second compound 10 µM, first compound 0.1 µM
[33] = second compound 10 µM, first compound 0.316 µM
[34] = second compound 10 µM, first compound 1 µM
[35] = second compound 10 µM, first compound 3.16 µM
[36] = second compound 10 µM, first compound 10 µM
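Note: spheroids exposed to compounds for seven days.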
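Throughout, for viability, T/C: 100% = DMSO vehicle control viability.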

C=CCn1c(=O)c2cnc(Nc3ccc(N4CCN(C)CC4)cc3)nc2n1-c1cccc(C(C)(C)O)n1 + Cc1[nH]c2ccc(F)cc2c1-c1nc2c3cccnc3c3ncccc3c2[nH]1
433 nM: IC50 (second compound 1 µM)
active: viability, T/C [5] 7.69% | viability, T/C [6] 10.2% | viability, T/C [11] 6.68% | viability, T/C [12] 11.6% | viability, T/C [18] 12.1% | viability, T/C [23] 6.95% | viability, T/C [24] 12.4% | viability, T/C [35] 7.95% | viability, T/C [36] 12.3%
inactive: viability, T/C [1] 124% | viability, T/C [2] 92.8% | viability, T/C [3] 60.4% | viability, T/C [4] 15.3% | viability, T/C [7] 101% | viability, T/C [8] 95.5% | viability, T/C [9] 69.8% | viability, T/C [10] 15% | viability, T/C [13] 105% | viability, T/C [14] 99% | viability, T/C [15] 58.7% | viability, T/C [16] 16.7% | viability, T/C [17] 7.33% | viability, T/C [19] 111% | viability, T/C [20] 96.2% | viability, T/C [21] 63.4% | viability, T/C [22] 18.3% | viability, T/C [25] 101% | viability, T/C [26] 98.6% | viability, T/C [27] 51.8% | viability, T/C [28] 14.2% | viability, T/C [29] 7.78% | viability, T/C [30] 12.1% | viability, T/C [31] 100% | viability, T/C [32] 78.4% | viability, T/C [33] 57.6% | viability, T/C [34] 14.1%
478 nM: IC50 (second compound 0.1 µM)
335 nM: IC50 (second compound 3.16 µM)
364 nM: IC50 (second compound 0.0316 µM)
339 nM: IC50 (second compound 10 µM)
401 nM: IC50 (second compound 0.316 µM)

CC(C)(O)C1CCC(Nc2ccc3ncc(-c4cccc(C(F)(F)F)c4)n3n2)CC1 (stereo not drawn) + Cc1[nH]c2ccc(F)cc2c1-c1nc2c3cccnc3c3ncccc3c2[nH]1
1580 nM: IC50 (second compound 1 µM)
1870 nM: IC50 (second compound 0.1 µM)
1860 nM: IC50 (second compound 0.0316 µM)
1840 nM: IC50 (second compound 0.316 µM)
1630 nM: IC50 (second compound 3.16 µM)
inactive: viability, T/C [1] 112% | viability, T/C [2] 97.4% | viability, T/C [3] 96.6% | viability, T/C [4] 76.8% | viability, T/C [5] 21.8% | viability, T/C [6] 32.2% | viability, T/C [7] 108% | viability, T/C [8] 100% | viability, T/C [9] 92.1% | viability, T/C [10] 78.1% | viability, T/C [11] 23.1% | viability, T/C [12] 29.8% | viability, T/C [13] 102% | viability, T/C [14] 98.1% | viability, T/C [15] 105% | viability, T/C [16] 78.4% | viability, T/C [17] 18.3% | viability, T/C [18] 31.6% | viability, T/C [19] 98.2% | viability, T/C [20] 95.6% | viability, T/C [21] 95.5% | viability, T/C [22] 67.1% | viability, T/C [23] 23.8% | viability, T/C [24] 22.8% | viability, T/C [25] 95.1% | viability, T/C [26] 98.8% | viability, T/C [27] 90.9% | viability, T/C [28] 67.3% | viability, T/C [29] 21.4% | viability, T/C [30] 31.4% | viability, T/C [31] 87.6% | viability, T/C [32] 81.3% | viability, T/C [33] 89% | viability, T/C [34] 59.6% | viability, T/C [35] 21.7% | viability, T/C [36] 30.7%
1390 nM: IC50 (second compound 10 µM)

COc1ncnc(C2CC2)c1-c1ncc2cnn(Cc3ccc(-c4nc(C(F)(F)F)cn4C(C)C)cc3)c2n1 + Cc1[nH]c2ccc(F)cc2c1-c1nc2c3cccnc3c3ncccc3c2[nH]1
> 10000 nM: IC50 (second compound 0.0316 µM) | IC50 (second compound 0.1 µM) | IC50 (second compound 0.316 µM) | IC50 (second compound 1 µM) | IC50 (second compound 3.16 µM) | IC50 (second compound 10 µM)
inactive: viability, T/C [1] 112% | viability, T/C [2] 100% | viability, T/C [3] 110% | viability, T/C [4] 110% | viability, T/C [5] 96% | viability, T/C [6] 102% | viability, T/C [7] 126% | viability, T/C [8] 102% | viability, T/C [9] 107% | viability, T/C [10] 105% | viability, T/C [11] 92.9% | viability, T/C [12] 100% | viability, T/C [13] 109% | viability, T/C [14] 111% | viability, T/C [15] 106% | viability, T/C [16] 120% | viability, T/C [17] 105% | viability, T/C [18] 98.6% | viability, T/C [19] 103% | viability, T/C [20] 99.3% | viability, T/C [21] 105% | viability, T/C [22] 106% | viability, T/C [23] 92.3% | viability, T/C [24] 98.9% | viability, T/C [25] 99.2% | viability, T/C [26] 97.3% | viability, T/C [27] 99.4% | viability, T/C [28] 91.5% | viability, T/C [29] 96.9% | viability, T/C [30] 89.8% | viability, T/C [31] 102% | viability, T/C [32] 92.9% | viability, T/C [33] 96.7% | viability, T/C [34] 86.8% | viability, T/C [35] 83.5% | viability, T/C [36] 95.1%

COc1ccc([C@@H](O)c2cc(-c3ncnc4cc(N5CCOCC5)ccc34)c(F)cc2Cl)nn1 + Cc1cnc(CNC(=O)c2c(=O)c3ccc(N4CCCN(C)CC4)nc3n3c2sc2ccccc23)cn1
578 nM: IC50 (second compound 3.16 µM)
416 nM: IC50 (second compound 0.316 µM)
inactive: viability, T/C [1] 104% | viability, T/C [2] 88.2% | viability, T/C [3] 72.3% | viability, T/C [4] 43.9% | viability, T/C [5] 34% | viability, T/C [6] 33.9% | viability, T/C [7] 83.5% | viability, T/C [8] 71.3% | viability, T/C [9] 46% | viability, T/C [10] 35.3% | viability, T/C [11] 32.1% | viability, T/C [12] 30.1% | viability, T/C [13] 70.8% | viability, T/C [14] 66.3% | viability, T/C [15] 49.6% | viability, T/C [16] 42% | viability, T/C [17] 40.1% | viability, T/C [18] 30.8% | viability, T/C [19] 68.2% | viability, T/C [20] 59.2% | viability, T/C [21] 55.1% | viability, T/C [22] 43.7% | viability, T/C [23] 39.8% | viability, T/C [24] 28.4% | viability, T/C [25] 69% | viability, T/C [26] 54.3% | viability, T/C [27] 61.2% | viability, T/C [28] 41.5% | viability, T/C [29] 39.7% | viability, T/C [30] 27.3%
530 nM: IC50 (second compound 1 µM)
active: viability, T/C [31] 0.28% | viability, T/C [32] 0.73% | viability, T/C [33] 0.4% | viability, T/C [34] 0.39% | viability, T/C [35] 0.33% | viability, T/C [36] 0.28%
814 nM: IC50 (second compound 0.0316 µM)
269 nM: IC50 (second compound 0.1 µM)
< 31.6 nM: IC50 (second compound 10 µM)
